# Results published in PubChem BioAssay (NCI).
#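 Cells were grown in 96-well plates and exposed to each compound for 48 hours at five concentrations; endpoints were interpolated linearly between bracketing concentrations, or set to the highest concentration if not reached. The concentration for full growth arrest is given as TGI.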
# Legend:
# Assay in all cases: NCI tumour cell line growth inhibition, 48 h
# 786-0 renal = test system: 786-0 renal
# A498 renal = test system: A498 renal
# A549 NSCLC = test system: A549 NSCLC
# CAKI-1 renal = test system: CAKI-1 renal
# CCRF-CEM leukemia = test system: CCRF-CEM leukemia
# COLO 205 colon = test system: COLO 205 colon
# DLD-1 colon = test system: DLD-1 colon
# DMS 114 small cell lung = test system: DMS 114 small cell lung
# DMS 273 small cell lung = test system: DMS 273 small cell lung
# EKVX NSCLC = test system: EKVX NSCLC
# HCC-2998 colon = test system: HCC-2998 colon
# HCT-116 colon = test system: HCT-116 colon
# HCT-15 colon = test system: HCT-15 colon
# HL-60(TB) leukemia = test system: HL-60(TB) leukemia
# HOP-62 NSCLC = test system: HOP-62 NSCLC
# HOP-92 NSCLC = test system: HOP-92 NSCLC
# HT29 colon = test system: HT29 colon
# IGROV1 ovarian = test system: IGROV1 ovarian
# K-562 leukemia = test system: K-562 leukemia
# KM12 colon = test system: KM12 colon
# KM20L2 colon = test system: KM20L2 colon
# LOX IMVI melanoma = test system: LOX IMVI melanoma
# LXFL 529 NSCLC = test system: LXFL 529 NSCLC
# M14 melanoma = test system: M14 melanoma
# M19-MEL melanoma = test system: M19-MEL melanoma
# MALME-3M melanoma = test system: MALME-3M melanoma
# MOLT-4 leukemia = test system: MOLT-4 leukemia
# NCI-H226 lung = test system: NCI-H226 lung
# NCI-H23 lung = test system: NCI-H23 lung
# NCI-H460 lung = test system: NCI-H460 lung
# NCI-H522 lung = test system: NCI-H522 lung
# OVCAR-3 ovarian = test system: OVCAR-3 ovarian
# OVCAR-4 ovarian = test system: OVCAR-4 ovarian
# OVCAR-5 ovarian = test system: OVCAR-5 ovarian
# OVCAR-8 ovarian = test system: OVCAR-8 ovarian
# RPMI-8226 leukemia = test system: RPMI-8226 leukemia
# RXF 393 renal = test system: RXF 393 renal
# SF-268 CNS = test system: SF-268 CNS
# SF-295 CNS = test system: SF-295 CNS
# SF-539 CNS = test system: SF-539 CNS
# SK-MEL-5 melanoma = test system: SK-MEL-5 melanoma
# SK-OV-3 ovarian = test system: SK-OV-3 ovarian
# SN12C renal = test system: SN12C renal
# SNB-19 CNS = test system: SNB-19 CNS
# SNB-75 CNS = test system: SNB-75 CNS
# SNB-78 CNS = test system: SNB-78 CNS
# SR leukemia = test system: SR leukemia
# SW-620 colon = test system: SW-620 colon
# TK-10 renal = test system: TK-10 renal
# U251 CNS = test system: U251 CNS
# UACC-257 melanoma = test system: UACC-257 melanoma
# UACC-62 melanoma = test system: UACC-62 melanoma
# UO-31 renal = test system: UO-31 renal
# XF 498 CNS = test system: XF 498 CNS
# ACHN renal = test system: ACHN renal
# HOP-18 NSCLC = test system: HOP-18 NSCLC
# SK-MEL-2 melanoma = test system: SK-MEL-2 melanoma
# SK-MEL-28 melanoma = test system: SK-MEL-28 melanoma
compound,measurement,setting,value
N#CC(C#N)=C1NC(=O)CC(=O)N1,TGI,786-0 renal,> 100 µM
same,TGI,A498 renal,> 100 µM
same,TGI,A549 NSCLC,> 100 µM
same,TGI,CAKI-1 renal,> 100 µM
same,TGI,CCRF-CEM leukemia,> 100 µM
same,TGI,COLO 205 colon,> 100 µM
same,TGI,DLD-1 colon,> 100 µM
same,TGI,DMS 114 small cell lung,> 100 µM
same,TGI,DMS 273 small cell lung,> 100 µM
same,TGI,EKVX NSCLC,> 100 µM
same,TGI,HCC-2998 colon,> 100 µM
same,TGI,HCT-116 colon,> 100 µM
same,TGI,HCT-15 colon,> 100 µM
same,TGI,HL-60(TB) leukemia,> 100 µM
same,TGI,HOP-62 NSCLC,> 100 µM
same,TGI,HOP-92 NSCLC,> 100 µM
same,TGI,HT29 colon,> 100 µM
same,TGI,IGROV1 ovarian,> 100 µM
same,TGI,K-562 leukemia,> 100 µM
same,TGI,KM12 colon,> 100 µM
same,TGI,KM20L2 colon,> 100 µM
same,TGI,LOX IMVI melanoma,> 100 µM
same,TGI,LXFL 529 NSCLC,> 100 µM
same,TGI,M14 melanoma,> 100 µM
same,TGI,M19-MEL melanoma,> 100 µM
same,TGI,MALME-3M melanoma,> 100 µM
same,TGI,MOLT-4 leukemia,> 100 µM
same,TGI,NCI-H226 lung,> 100 µM
same,TGI,NCI-H23 lung,> 100 µM
same,TGI,NCI-H460 lung,> 100 µM
same,TGI,NCI-H522 lung,> 100 µM
same,TGI,OVCAR-3 ovarian,> 100 µM
same,TGI,OVCAR-4 ovarian,> 100 µM
same,TGI,OVCAR-5 ovarian,> 100 µM
same,TGI,OVCAR-8 ovarian,> 100 µM
same,TGI,RPMI-8226 leukemia,> 100 µM
same,TGI,RXF 393 renal,> 100 µM
same,TGI,SF-268 CNS,> 100 µM
same,TGI,SF-295 CNS,> 100 µM
same,TGI,SF-539 CNS,> 100 µM
same,TGI,SK-MEL-5 melanoma,> 100 µM
same,TGI,SK-OV-3 ovarian,> 100 µM
same,TGI,SN12C renal,> 100 µM
same,TGI,SNB-19 CNS,> 100 µM
same,TGI,SNB-75 CNS,> 100 µM
same,TGI,SNB-78 CNS,> 100 µM
same,TGI,SR leukemia,> 100 µM
same,TGI,SW-620 colon,> 100 µM
same,TGI,TK-10 renal,> 100 µM
same,TGI,U251 CNS,> 100 µM
same,TGI,UACC-257 melanoma,> 100 µM
same,TGI,UACC-62 melanoma,> 100 µM
same,TGI,UO-31 renal,> 100 µM
same,TGI,XF 498 CNS,> 100 µM
CCn1c2ccccc2c2ccc3c(c21)C(=O)C=CC3=O,TGI,786-0 renal,3.3 µM
same,TGI,A549 NSCLC,> 100 µM
same,TGI,ACHN renal,30.2 µM
same,TGI,CCRF-CEM leukemia,> 100 µM
same,TGI,COLO 205 colon,24.1 µM
same,TGI,DLD-1 colon,14.9 µM
same,TGI,DMS 114 small cell lung,21.7 µM
same,TGI,DMS 273 small cell lung,33.8 µM
same,TGI,EKVX NSCLC,30 µM
same,TGI,HCC-2998 colon,38.5 µM
same,TGI,HCT-116 colon,15.4 µM
same,TGI,HCT-15 colon,25.7 µM
same,TGI,HL-60(TB) leukemia,12.9 µM
same,TGI,HOP-18 NSCLC,23.2 µM
same,TGI,HOP-62 NSCLC,40 µM
same,TGI,HOP-92 NSCLC,30.3 µM
same,TGI,HT29 colon,42.1 µM
same,TGI,IGROV1 ovarian,14.8 µM
same,TGI,K-562 leukemia,9.19 µM
same,TGI,KM12 colon,27.4 µM
same,TGI,LXFL 529 NSCLC,3.56 µM
same,TGI,M14 melanoma,14.9 µM
same,TGI,M19-MEL melanoma,25.8 µM
same,TGI,MALME-3M melanoma,22 µM
same,TGI,MOLT-4 leukemia,17.2 µM
same,TGI,NCI-H226 lung,32.8 µM
same,TGI,NCI-H23 lung,51.1 µM
same,TGI,NCI-H460 lung,45.5 µM
same,TGI,NCI-H522 lung,4.52 µM
same,TGI,OVCAR-3 ovarian,26.6 µM
same,TGI,OVCAR-4 ovarian,14.2 µM
same,TGI,OVCAR-5 ovarian,44.1 µM
same,TGI,OVCAR-8 ovarian,29 µM
same,TGI,RPMI-8226 leukemia,> 100 µM
same,TGI,SF-268 CNS,40 µM
same,TGI,SF-295 CNS,44.5 µM
same,TGI,SF-539 CNS,44 µM
same,TGI,SK-MEL-2 melanoma,44 µM
same,TGI,SK-MEL-28 melanoma,33.3 µM
same,TGI,SK-OV-3 ovarian,34 µM
same,TGI,SN12C renal,33.5 µM
same,TGI,SNB-75 CNS,63.3 µM
same,TGI,SNB-78 CNS,57.5 µM
same,TGI,TK-10 renal,30 µM
same,TGI,U251 CNS,31.7 µM
same,TGI,UACC-257 melanoma,27.7 µM
same,TGI,UO-31 renal,21.6 µM
same,TGI,XF 498 CNS,12.9 µM
